In patent US12539292B2, “BRM targeting compounds and associated methods of use” (Arvinas Operations, Inc., priority 2018, dated 2026) one finds Dmax and DC50 data, which are given here for twelve molecules.

For the experiment, the target named is T1, BRM (Homo sapiens, UniProt P51531).
T1 construct: In-Cell Western Screen of BRM Degradation in SW1573 Cells; endogenous in cells; host or cells: SW1573
As to the kind of experiment: In-cell Western screen of BRM degradation in SW1573 cells (Dmax and DC50). Format: cell-based. An outline of the steps: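 Adherent SW1573 cultures exposed to test compounds for 18-20 h were processed for in-cell Western after PFA fixation and detergent permeabilization. BRM degradation was reported as Dmax and DC50.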

Where [1] appears, read: BRM degradation, SW1573 cells, Table 2D, read-out: **Dmax (%) (% degraded).
Setting [2] is: BRM degradation, SW1573 cells, Table 2D, read-out: *DC50.
Where [3] appears, read: BRM degradation, SW1573 cells, read-out: DC50.
The mark [4] stands for this setting: BRM degradation, SW1573 cells, read-out: Dmax (% degraded).
[5] abbreviates: SW1573, % degraded, when tested at the top concentration of between 0.3 and 10 μM, read-out: BRM Dmax (%).
Setting [6] is: target protein degradation, read-out: BRM DC50.

By Dmax is commonly meant the largest share of the target that was removed. One may read the DC50 as the concentration giving 50% degradation.

Like-named read-outs stand apart in the source and are kept apart here.

T1 sequence (P51531 whole entry): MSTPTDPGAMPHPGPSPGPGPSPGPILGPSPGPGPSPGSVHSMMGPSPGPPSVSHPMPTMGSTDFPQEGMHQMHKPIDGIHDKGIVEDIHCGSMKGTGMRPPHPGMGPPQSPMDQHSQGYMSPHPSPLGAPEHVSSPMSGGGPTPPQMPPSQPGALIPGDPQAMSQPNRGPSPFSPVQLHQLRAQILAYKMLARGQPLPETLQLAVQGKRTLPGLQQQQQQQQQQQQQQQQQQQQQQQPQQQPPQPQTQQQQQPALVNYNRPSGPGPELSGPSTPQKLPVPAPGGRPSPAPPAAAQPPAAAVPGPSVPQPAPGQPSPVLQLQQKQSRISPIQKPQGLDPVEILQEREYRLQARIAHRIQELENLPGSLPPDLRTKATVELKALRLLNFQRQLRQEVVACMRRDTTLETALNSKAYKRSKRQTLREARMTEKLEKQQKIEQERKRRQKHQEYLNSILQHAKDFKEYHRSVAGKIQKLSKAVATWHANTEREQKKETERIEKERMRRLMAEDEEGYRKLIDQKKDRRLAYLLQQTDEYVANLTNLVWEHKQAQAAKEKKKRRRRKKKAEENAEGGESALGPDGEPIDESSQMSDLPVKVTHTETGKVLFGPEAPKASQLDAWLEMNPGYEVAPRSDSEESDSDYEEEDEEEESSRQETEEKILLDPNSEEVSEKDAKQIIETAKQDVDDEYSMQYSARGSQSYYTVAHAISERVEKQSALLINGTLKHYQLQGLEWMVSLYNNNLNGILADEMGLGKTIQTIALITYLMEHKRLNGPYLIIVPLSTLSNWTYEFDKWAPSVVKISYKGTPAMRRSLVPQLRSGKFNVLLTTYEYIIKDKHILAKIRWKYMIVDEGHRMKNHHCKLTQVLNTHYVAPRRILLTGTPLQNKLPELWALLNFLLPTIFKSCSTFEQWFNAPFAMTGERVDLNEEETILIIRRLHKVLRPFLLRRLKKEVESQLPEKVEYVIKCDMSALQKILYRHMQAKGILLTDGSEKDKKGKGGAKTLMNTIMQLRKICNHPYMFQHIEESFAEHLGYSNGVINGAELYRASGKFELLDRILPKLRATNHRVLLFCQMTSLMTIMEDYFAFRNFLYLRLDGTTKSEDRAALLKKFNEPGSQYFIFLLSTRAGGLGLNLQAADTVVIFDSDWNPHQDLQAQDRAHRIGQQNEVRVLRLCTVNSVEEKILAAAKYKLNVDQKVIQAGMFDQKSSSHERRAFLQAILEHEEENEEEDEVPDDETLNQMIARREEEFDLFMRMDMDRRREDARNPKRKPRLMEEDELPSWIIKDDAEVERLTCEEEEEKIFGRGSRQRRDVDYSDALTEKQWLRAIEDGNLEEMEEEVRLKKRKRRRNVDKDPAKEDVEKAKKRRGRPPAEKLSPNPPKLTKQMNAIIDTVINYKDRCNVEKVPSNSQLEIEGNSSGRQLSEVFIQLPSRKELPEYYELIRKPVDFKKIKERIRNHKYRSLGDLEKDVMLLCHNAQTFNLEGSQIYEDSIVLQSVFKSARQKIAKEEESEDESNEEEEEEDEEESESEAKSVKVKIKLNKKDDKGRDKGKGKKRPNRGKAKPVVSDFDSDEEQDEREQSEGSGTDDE

Take `Cc1ncsc1-c1ccc([C@H](C)NC(=O)[C@@H]2C[C@@H](O)CN2C(=O)[C@@H](c2cc(N3CCN(CCOc4cc(N5C6CCC5CN(c5cc(-c7ccccc7O)nnc5N)C6)ccn4)CC3)no2)C(C)C)cc1` [compound 592, (2S,4R)-1-((2R)-2-(3-(4-(2-((4-(3-(3-amino-6-(2-hydroxyphenyl)pyridazin-4-yl)-3,8-diazabicyclo[3.2.1]octan-8-yl)pyridin-2-yl)oxy)ethyl)piperazin-1-yl)isoxazol-5-yl)-3-methylbutanoyl)-4-hydroxy-N-((S)-1-(4-(4-methylthiazol-5-yl)phenyl)ethyl) pyrrolidine-2-carboxamide]: the greatest degradation seen (Dmax) under setting [1] was greater than 75%. For the same molecule, the DC50 under setting [2] is less than 0.0025 µM.

As to `Cc1ncsc1-c1ccc([C@H](CN(C)C)NC(=O)[C@@H]2C[C@@H](O)CN2C(=O)[C@H](c2cc(OCCN3CCN(CCOc4cc(N5C6CCC5CN(c5cc(-c7ccccc7O)nnc5N)C6)ccn4)CC3)no2)C(C)C)cc1` [compound 280, (2S,4R)-1-((2S)-2-(3-(2-(4-(2-((4-(3-(3-amino-6-(2-hydroxyphenyl)pyridazin-4-yl)-3,8-diazabicyclo[3.2.1]octan-8-yl)pyridin-2-yl)oxy)ethyl)piperazin-1-yl)ethoxy)isoxazol-5-yl)-3-methylbutanoyl)-N-((R)-2-(dimethylamino)-1-(4-(4-methylthiazol-5-yl)phenyl)ethyl)-4-hydroxypyrrolidine-2-carboxamide], the half-maximal degradation concentration (DC50) under setting [3] was greater than 0.03 µM. The same measure, in the same setting: the same measure for `Cc1ncsc1-c1ccc([C@H](C)NC(=O)[C@@H]2C[C@@H](O)CN2C(=O)[C@H](c2cc(N3CCN(C(C)(C)C4CCN(C[C@H]5C[C@H](Oc6cc(N7C8CCC7CN(c7cc(-c9ccccc9O)nnc7N)C8)ccn6)C5)CC4)CC3)no2)C(C)C)cc1` [compound 714, (2S,4R)-1-((2S)-2-(3-(4-(2-(1-(((1r,3r)-3-((4-(3-(3-amino-6-(2-hydroxyphenyl)pyridazin-4-yl)-3,8-diazabicyclo[3.2.1]octan-8-yl)pyridin-2-yl)oxy)cyclobutyl)methyl)piperidin-4-yl)propan-2-yl)piperazin-1-yl)isoxazol-5-yl)-3-methylbutanoyl)-4-hydroxy-N-((S)-1-(4-(4-methylthiazol-5-yl)phenyl)ethyl) pyrrolidine-2-carboxamide]: greater than 0.03 µM. With `Cc1ncsc1-c1ccc([C@H](C)NC(=O)[C@@H]2C[C@@H](O)CN2C(=O)[C@H](c2onc(OCCN3CCN(CCOc4cc(N5C6CCC5CN(c5cc(-c7ccccc7O)nnc5N)C6)ccn4)CC3)c2F)C(C)C)cc1` [compound 198, (2S,4R)-1-((2S)-2-(3-(2-(4-(2-((4-(3-(3-amino-6-(2-hydroxyphenyl)pyridazin-4-yl)-3,8-diazabicyclo[3.2.1]octan-8-yl)pyridin-2-yl)oxy)ethyl)piperazin-1-yl)ethoxy)-4-fluoroisoxazol-5-yl)-3-methylbutanoyl)-4-hydroxy-N-((S)-1-(4-(4-methylthiazol-5-yl)phenyl)ethyl)pyrrolidine-2-carboxamide], the half-maximal degradation concentration (DC50) under setting [3] was 0.01 to 0.03 µM. Besides, the Dmax (BRM degradation, SW1573 cells, tested at the top concentration of between 0.3 and 10 μM, read-out: Dmax (%) (% degraded)) was greater than 75%. As to `Cc1ncsc1-c1ccc([C@@H](NC(=O)[C@@H]2C[C@@H](O)CN2C(=O)[C@H](c2cc(N3CCC(CN4CCC(O[C@H]5C[C@H](Oc6cc(N7C8CCC7CN(c7cc(-c9ccccc9O)nnc7N)C8)ccn6)C5)CC4)CC3)no2)C(C)C)C(=O)N(C)C2CCC2)cc1` [compound 612, (2S,4R)-1-((2R)-2-(3-(4-((4-((1r,3r)-3-((4-(3-(3-amino-6-(2-hydroxyphenyl)pyridazin-4-yl)-3,8-diazabicyclo[3.2.1]octan-8-yl)pyridin-2-yl)oxy)cyclobutoxy)piperidin-1-yl)methyl)piperidin-1-yl)isoxazol-5-yl)-3-methylbutanoyl)-N-((R)-2-(cyclobutyl(methyl)amino)-1-(4-(4-methylthiazol-5-yl)phenyl)-2-oxoethyl)-4-hydroxypyrrolidine-2-carboxamide], the Dmax under setting [1] is greater than 75%. In addition, the DC50 under setting [2] is less than 0.0025 µM. In the case of `Cc1ncsc1-c1ccc([C@H](C)NC(=O)[C@@H]2C[C@@H](O)CN2C(=O)[C@@H](c2cc(N3CCC(CN4CCC(O[C@H]5C[C@H](C#Cc6cc(N7C8CCC7CN(c7cc(-c9ccccc9O)nnc7N)C8)ccn6)C5)CC4)CC3)no2)C(C)C)cc1` [compound 699, (2S,4R)-1-((2R)-2-(3-(4-((4-((1r,3r)-3-((4-(3-(3-amino-6-(2-hydroxyphenyl)pyridazin-4-yl)-3,8-diazabicyclo[3.2.1]octan-8-yl)pyridin-2-yl)ethynyl)cyclobutoxy)piperidin-1-yl)methyl)piperidin-1-yl)isoxazol-5-yl)-3-methylbutanoyl)-4-hydroxy-N-((S)-1-(4-(4-methylthiazol-5-yl)phenyl)ethyl)pyrrolidine-2-carboxamide], the DC50 under setting [3] is less than 0.0025 µM. Under setting [4], the Dmax is greater than 75%. Take `Cc1ncsc1-c1ccc([C@H](C)NC(=O)[C@@H]2C[C@@H](O)CN2C(=O)[C@@H](c2cc(OCCN3C[C@H]4C[C@@H](O[C@H]5C[C@H](Oc6cc(N7C8CCC7CN(c7cc(-c9ccccc9O)nnc7N)C8)ccn6)C5)C[C@H]4C3)no2)C(C)C)cc1` [compound 360, (2S,4R)-1-((2R)-2-(3-(2-((3aR,5R,6aS)-5-((1r,3R)-3-((4-(3-(3-amino-6-(2-hydroxyphenyl)pyridazin-4-yl)-3,8-diazabicyclo[3.2.1]octan-8-yl)pyridin-2-yl)oxy)cyclobutoxy)hexahydrocyclopenta[c]pyrrol-2(1H)-yl)ethoxy)isoxazol-5-yl)-3-methylbutanoyl)-4-hydroxy-N-((S)-1-(4-(4-methylthiazol-5-yl)phenyl)ethyl)pyrrolidine-2-carboxamide]: the Dmax under setting [5] was greater than 75%. For the same molecule, the DC50 under setting [6] is less than 0.0025 µM. Consider `Cc1ncsc1-c1ccc(CNC(=O)[C@@H]2C[C@@H](O)CN2C(=O)[C@@H](NC(=O)COCCOCCOCCOC/C=C/c2cc(N3C4CCC3CN(c3cc(-c5ccccc5O)nnc3N)C4)ccn2)C(C)(C)C)cc1` [compound 52, (2S,4R)-1-((S,E)-18-(4-(3-(3-amino-6-(2-hydroxyphenyl)pyridazin-4-yl)-3,8-diaza-bicyclo[3.2.1]octan-8-yl)pyridin-2-yl)-2-tert-butyl-4-oxo-6,9,12,15-tetraoxa-3-azaoctadec-17-en-1-oyl)-4-hydroxy-N-(4-(4-methylthiazol-5-yl)benzyl)pyrrolidine-2-carboxamide], for which the DC50 under setting [3] is 0.01 to 0.03 µM. The Dmax (BRM degradation, SW1573 cells, when tested at the top concentration of between 0.3 and 10 μM, read-out: Dmax (%) (% degraded)) was greater than 75%.

As to `Cc1ncsc1-c1ccc([C@H](C)NC(=O)[C@@H]2C[C@@H](O)CN2C(=O)[C@@H](c2cc(N3CCC(CN4CCC(O[C@H]5C[C@H](N6CCC(C(C)n7cc(-c8cc(-c9ccccc9O)nnc8N)cn7)CC6)C5)CC4)CC3)no2)C(C)C)cc1` (stereo partly drawn) [compound 648, (2S,4R)-1-((2R)-2-(3-(4-((4-((1r,3r)-3-(4-(1-(4-(3-amino-6-(2-hydroxyphenyl)pyridazin-4-yl)-1H-pyrazol-1-yl)ethyl)piperidin-1-yl)cyclobutoxy)piperidin-1-yl)methyl)piperidin-1-yl)isoxazol-5-yl)-3-methylbutanoyl)-4-hydroxy-N-((S)-1-(4-(4-methylthiazol-5-yl)phenyl)ethyl)pyrrolidine-2-carboxamide], the DC50 under setting [3] was less than 0.0025 µM. Further, under setting [4], the Dmax is greater than 75%.

`Cc1ncsc1-c1cc(F)c([C@H](C)NC(=O)[C@@H]2C[C@@H](O)CN2C(=O)[C@H](c2cc(N3CCC(CN4CCC(O[C@H]5C[C@H](Oc6cc(N7C8CCC7CN(c7cc(-c9ccccc9O)nnc7N)C8)ccn6)C5)CC4)CC3)no2)C(C)C)cc1F` [compound 680, (2S,4R)-1-((2S)-2-(3-(4-((4-((1r,3r)-3-((4-(3-(3-amino-6-(2-hydroxyphenyl)pyridazin-4-yl)-3,8-diazabicyclo[3.2.1]octan-8-yl)pyridin-2-yl)oxy)cyclobutoxy)piperidin-1-yl)methyl)piperidin-1-yl)isoxazol-5-yl)-3-methylbutanoyl)-N-((S)-1-(2,5-difluoro-4-(4-methylthiazol-5-yl)phenyl)ethyl)-4-hydroxypyrrolidine-2-carboxamide]: the DC50 under setting [3] is greater than 0.03 µM. On to `Cc1nccn1-c1ccc([C@H](C)NC(=O)[C@@H]2C[C@@H](O)CN2C(=O)[C@@H](c2cc(N3CCC(OC4CCN(C[C@H]5C[C@H](Oc6cc(N7C8CCC7CN(c7cc(-c9ccccc9O)nnc7N)C8)ccn6)C5)CC4)CC3)no2)C(C)C)cc1` [compound 478, (2S,4R)-1-((2R)-2-(3-(4-((1-(((1r,3r)-3-((4-(3-(3-amino-6-(2-hydroxyphenyl)pyridazin-4-yl)-3,8-diazabicyclo[3.2.1]octan-8-yl)pyridin-2-yl)oxy)cyclobutyl)methyl)piperidin-4-yl)oxy)piperidin-1-yl)isoxazol-5-yl)-3-methylbutanoyl)-4-hydroxy-N-((S)-1-(4-(2-methyl-1H-imidazol-1-yl)phenyl)ethyl)pyrrolidine-2-carboxamide], for which the Dmax under setting [5] is greater than 75%. For the same molecule, the DC50 under setting [6] is less than 0.0025 µM. With `Cc1nccn1-c1ccc([C@H](C)NC(=O)[C@@H]2C[C@@H](O)CN2C(=O)[C@H](c2cc(N3CCC(OC4CCN(C[C@H]5C[C@H](Oc6cc(N7C8CCC7CN(c7cc(-c9ccccc9O)nnc7N)C8)ccn6)C5)CC4)CC3)no2)C(C)C)cc1` [compound 477, (2S,4R)-1-((2S)-2-(3-(4-((1-(((1r,3r)-3-((4-(3-(3-amino-6-(2-hydroxyphenyl)pyridazin-4-yl)-3,8-diazabicyclo[3.2.1]octan-8-yl)pyridin-2-yl)oxy)cyclobutyl)methyl)piperidin-4-yl)oxy)piperidin-1-yl)isoxazol-5-yl)-3-methylbutanoyl)-4-hydroxy-N-((S)-1-(4-(2-methyl-1H-imidazol-1-yl)phenyl)ethyl)pyrrolidine-2-carboxamide], the DC50 under setting [6] is greater than 0.03 µM.
